Experimental data taken from US11472798B2 (Mission Therapeutics Limited, priority 2014, dated 2022).

Each compound was assayed against T1, UCHL1 (Homo sapiens, UniProt P09936) (assay: UCHL1 biochemical IC50 assay (fluorescence polarisation)). Details: 30 min enzyme/compound pre-incubation at room temp, read after 2 hr incubation, read-out: Activity range (UCHL1 biochemical IC50 assay).
T1 construct: made in house; host or cells: HEK293T
T1 sequence (P09936 1-223): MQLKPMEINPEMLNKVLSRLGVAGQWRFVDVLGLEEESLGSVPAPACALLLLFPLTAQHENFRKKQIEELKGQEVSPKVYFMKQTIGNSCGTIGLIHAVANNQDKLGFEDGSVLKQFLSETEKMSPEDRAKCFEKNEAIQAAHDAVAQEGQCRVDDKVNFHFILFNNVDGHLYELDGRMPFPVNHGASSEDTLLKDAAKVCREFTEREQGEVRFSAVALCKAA
In short: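 FLAG-UCHL1 purified from transfected HEK293T cells was preincubated 30 min at room temperature with compound (8 points, 100–0.03 μM final) in Tris pH 7.5 buffer with Tween 20, BSA and beta-mercaptoethanol. Reaction started with 50 nM TAMRA-peptide–ubiquitin isopeptide substrate; fluorescence polarisation (ex 540/em 590 nm) read at once and after 2 h.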

IC50 [µM]	Structure (SMILES)
< 1	C#Cc1ccc(-c2cnc(NC(=O)[C@H]3CCN(C#N)C3)s2)cc1 [Example 205, (S)-1-cyano-N-(5-(4-ethynylphenyl)thiazol-2-yl)pyrrolidine-3-carboxamide]
< 1	C#Cc1cccc(-c2cnc(NC(=O)[C@H]3CCN(C#N)C3)s2)c1 [Example 206, (S)-1-cyano-N-(5-(3-ethynylphenyl)thiazol-2-yl)pyrrolidine-3-carboxamide]
< 1	N#CN1CC[C@H](C(=O)Nc2ncc(-c3ccnnc3)s2)C1 [Example 213, (S)-1-cyano-N-(5-(pyridazin-4-yl)thiazol-2-yl)pyrrolidine-3-carboxamide]
< 1	N#Cc1ccc(-c2cnc(NC(=O)[C@H]3CCN(C#N)C3)s2)cc1F [Example 214, (S)-1-cyano-N-(5-(4-cyano-3-fluorophenyl)thiazol-2-yl)pyrrolidine-3-carboxamide]
< 1	N#CN1CC[C@H](C(=O)Nc2ncc(-c3cccc4cn[nH]c34)s2)C1 [Example 215, (S)-N-(5-(1H-indazol-7-yl)thiazol-2-yl)-1-cyanopyrrolidine-3-carboxamide]
< 1	N#CN1CC[C@H](C(=O)Nc2ncc(-c3cccc(-n4cccn4)c3)s2)C1 [Example 218, (S)-N-(5-(3-(1H-pyrazol-1-yl)phenyl)thiazol-2-yl)-1-cyanopyrrolidine-3-carboxamide]
< 1	COc1cc(-c2cnc(NC(=O)[C@H]3CCN(C#N)C3)s2)ccc1C#N [Example 220, (S)-1-cyano-N-(5-(4-cyano-3-methoxyphenyl)thiazol-2-yl)pyrrolidine-3-carboxamide]
< 1	N#CN1CC[C@H](C(=O)Nc2ncc(-c3ccc(S(N)(=O)=O)cc3)s2)C1 [Example 221, (S)-1-cyano-N-(5-(4-sulfamoylphenyl)thiazol-2-yl)pyrrolidine-3-carboxamide]
< 1	N#CN1CC[C@H](C(=O)Nc2ncc(-c3ccc4cn[nH]c4c3)s2)C1 [Example 222, (S)-N-(5-(1H-indazol-6-yl)-2-yl)-1-cyanopyrrolidine-3-carboxamide]
< 1	N#CN1CC[C@H](C(=O)Nc2ncc(-c3ccc4[nH]ncc4c3)s2)C1 [Example 223, (S)-N-(5-(1H-indazol-5-yl)thiazol-2-yl)-1-cyanopyrrolidine-3-carboxamide]
< 1	Cn1ncc2cc(-c3cnc(NC(=O)[C@H]4CCN(C#N)C4)s3)ccc21 [Example 226, (S)-1-cyano-N-(5-(1-methyl-1H-indazol-5-yl)thiazol-2-yl)pyrrolidine-3-carboxamide]
< 1	COCCn1ncc2cc(-c3cnc(NC(=O)[C@H]4CCN(C#N)C4)s3)ccc21 [Example 227, (S)-1-cyano-N-(5-(1-(2-methoxyethyl)-1H-indazol-5-yl)thiazol-2-yl)pyrrolidine-3-carboxamide]
< 1	N#CN1CC[C@H](C(=O)Nc2ncc(-c3cccc4[nH]ncc34)s2)C1 [Example 230, (S)—N-(5-(1H-indazol-4-yl)thiazol-2-yl)-1-cyanopyrrolidine-3-carboxamide]

Continued, compound first:

Structure (SMILES)	IC50 [µM]
CN1CCc2nc(NC(=O)[C@H]3CCN(C#N)C3)sc2C1 [Example 200, (S)-1-cyano-N-(5-methyl-4,5,6,7-tetrahydrothiazolo[5,4-c]pyridin-2-yl)pyrrolidine-3-carboxamide]	1 to 10
N#CN1CC[C@H](C(=O)Nc2nc3c(s2)CN(Cc2ccccc2)CC3)C1 [Example 201, (S)—N-(5-benzyl-4,5,6,7-tetrahydrothiazolo[5,4-c]pyridin-2-yl)-1-cyanopyrrolidine-3-carboxamide]	1 to 10
CS(=O)(=O)N1CCc2nc(NC(=O)[C@H]3CCN(C#N)C3)sc2C1 [Example 202, (S)-1-cyano-N-(5-(methylsulfonyl)-4,5,6,7-tetrahydrothiazolo[5,4-c]pyridin-2-yl)pyrrolidine-3-carboxamide]	< 1
CC(C)S(=O)(=O)N1CCc2nc(NC(=O)[C@H]3CCN(C#N)C3)sc2C1 [Example 203, (S)-1-cyano-N-(5-(isopropylsulfonyl)-4,5,6,7-tetrahydrothiazolo[5,4-c]pyridin-2-yl)pyrrolidine-3-carboxamide]	< 1
N#CN1CC[C@H](C(=O)Nc2nc3c(s2)CN(S(=O)(=O)c2ccccc2)CC3)C1 [Example 204, (S)-1-cyano-N-(5-(phenylsulfonyl)-4,5,6,7-tetrahydrothiazolo[5,4-c]pyridin-2-yl)pyrrolidine-3-carboxamide]	< 1
CC(NS(=O)(=O)c1ccc(NC(=O)[C@H]2CCN(C#N)C2)nc1)c1ccccc1 (stereo partly drawn) [Example 207, (3S)-1-cyano-N-(5-(N-(1-phenylethyl)sulfamoyl)pyridin-2-yl)pyrrolidine-3-carboxamide]	1 to 10
CC(c1ccccc1)N(C)S(=O)(=O)c1ccc(NC(=O)[C@H]2CCN(C#N)C2)nc1 (stereo partly drawn) [Example 208, (3S)-1-cyano-N-(5-(N-methyl-N-(1-phenylethyl)sulfamoyl)pyridin-2-yl)pyrrolidine-3-carboxamide]	< 1
Cc1nc(-c2ccc3nc(NC(=O)[C@H]4CCN(C#N)C4)cn3c2)no1 [Example 209, (S)-1-cyano-N-(6-(5-methyl-1,2,4-oxadiazol-3-yl)imidazo[1,2-a]pyridin-2-yl)pyrrolidine-3-carboxamide]	< 1
Cn1cc(-c2ccnc(NC(=O)[C@H]3CCN(C#N)C3)c2)cn1 [Example 211, (S)-1-cyano-N-(4-(1-methyl-1H-pyrazol-4-yl)pyridin-2-yl)pyrrolidine-3-carboxamide]	1 to 10
CN(C)S(=O)(=O)N1CCc2nc(NC(=O)[C@H]3CCN(C#N)C3)sc2C1 [Example 212, (S)-1-cyano-N-(5-(N,N-dimethylsulfamoyl)-4,5,6,7-tetrahydrothiazolo[5,4-c]pyridin-2-yl)pyrrolidine-3-carboxamide]	< 1
N#CN1CC[C@H](C(=O)Nc2ncc(-c3cccc(-n4ccnc4)c3)s2)C1 [Example 216, (S)-N-(5-(3-(1H-imidazol-1-yl)phenyl)thiazol-2-yl)-1-cyanopyrrolidine-3-carboxamide]	< 1
CS(=O)(=O)Nc1ccc(-c2cnc(NC(=O)[C@H]3CCN(C#N)C3)s2)cc1 [Example 217, (S)-1-cyano-N-(5-(4-(methylsulfonamido)phenyl)thiazol-2-yl)pyrro1idine-3-carboxamide]	< 1
N#Cc1ccc(-c2cnc(NC(=O)[C@H]3CCN(C#N)C3)s2)cc1OC(F)(F)F [Example 219, (S)-1-cyano-N-(5-(4-cyano-3-(trifluoromethoxy)phenyl)thiazol-2-yl)pyrrolidine-3-carboxamide]	< 1
CNC(=O)c1cccc(-c2cnc(NC(=O)[C@H]3CCN(C#N)C3)s2)n1 [Example 224, (S)-6-(2-(1-cyanopyrrolidine-3-carboxamido)thiazol-5-yl)-N-methylpicolinamide]	< 1
CCNC(=O)c1cccc(-c2cnc(NC(=O)[C@H]3CCN(C#N)C3)s2)n1 [Example 225, (S)-6-(2-(1-cyanopyrrolidine-3-carboxamido)thiazol-5-yl)-N-ethylpicolinamide]	< 1
N#CN1CC[C@H](C(=O)Nc2ncc(-c3cccc4c3NC(=O)C4)s2)C1 [Example 228, (S)-1-cyano-N-(5-(2-oxoindolin-7-yl)thiazol-2-yl)pyrrolidine-3-carboxamide]	< 1
